# Several values for one entry are separate records, joined by “and”; a condition that tells them apart may be missing. Identical values can stand only once.
# How the values were obtained:
# Type in all cases: cell-based
# Parameters in all cases: Shifts in ANAP emission, Ave: unit: nm
# ANAP-incorporated TRPM8 [1] = target: T1, ANAP-incorporated TRPM8 (Mus musculus, UniProt Q8R4D5, A875X)
# T1 construct: expressed in transfected cells; host or cells: HEK293 cells, co-transfected with the pANAP vector
# Description: (§1) As fluorescence emission peak of ANAP shifts to a longer wavelength in more hydrophilic environment, we measured the shift in ANAP emission peak to report conformational changes. Fluorescence properties of ANAP may also be affected by other factors such as temperature and pH[31], so we performed our ANAP experiments always at room temperature (22 ± 1°C). To control for changes in solution pH, we added 3 mM HEPES in ANAP imaging solution to buffer the pH at 7.2. We genetically integrated ANAP into a specific site on TRPM8 with special tRNA and synthetase encoded by pANAP vector (Fig. 5d).
# (§2) L-ANAP methyl ester was purchased from AsisChem. pANAP vector was purchased from Addgene. ANAP was incorporated into TRPM8 by introducing a TAG amber stop codon mutation as previously reported. Briefly, after co-transfection of both TRPM8 and pANAP vectors, ANAP was directly added to the culture medium to the final concentration of 20 µM. After 1–2 days, ANAP-containing culture medium was completely changed. Cells were further cultured in ANAP-free medium overnight before experiments.
# (§3) ANAP fluorescence was excited by the Ar laser with a 375/28 excitation filter, a T400lp dichroic mirror, and a 435LP emission filter on an inverted fluorescence microscope (Nikon TE2000-U) using a ×40 oil-immersion objective (NA 1.3). Emission spectrum of ANAP was imaged with an Acton SpectraPro 2150i spectrograph in conjunction with an optiMOS CCD camera (Qimaging, USA). We determined the ANAP emission peak value by fitting the emission spectrum with a skewed Gauss distribution in Igor Pro version 6.1 (WaveMatrix), and then the difference in emission peak values measured in the absence and presence of menthol was reported as the shift of ANAP emission.
# ANAP-incorporated TRPM8 [2] = target: T2, ANAP-incorporated TRPM8 (Mus musculus, UniProt Q8R4D5, D920X)
# T2 construct: expressed in transfected cells; host or cells: HEK293 cells, co-transfected with the pANAP vector
# Description: as §1, §2, §3
# ANAP-incorporated TRPM8 [3] = target: T3, ANAP-incorporated TRPM8 (Mus musculus, UniProt Q8R4D5, D944X); details: ANAP incorporation site D944
# T3 construct: expressed in transfected cells; host or cells: HEK293 cells, co-transfected with the pANAP vector
# Description: as §1, §2, §3
# ANAP-incorporated TRPM8 [4] = target: T4, ANAP-incorporated TRPM8 (Mus musculus, UniProt Q8R4D5, F847X); details: ANAP incorporation site F847
# T4 construct: expressed in transfected cells; host or cells: HEK293 cells, co-transfected with the pANAP vector
# Description: as §1, §2, §3
# ANAP-incorporated TRPM8 [5] = target: T5, ANAP-incorporated TRPM8 (Mus musculus, UniProt Q8R4D5, F872X); details: ANAP incorporation site F872
# T5 construct: expressed in transfected cells; host or cells: HEK293 cells, co-transfected with the pANAP vector
# Description: as §1, §2, §3
# ANAP-incorporated TRPM8 [6] = target: T6, ANAP-incorporated TRPM8 (Mus musculus, UniProt Q8R4D5, L864X); details: ANAP incorporation site L864
# T6 construct: expressed in transfected cells; host or cells: HEK293 cells, co-transfected with the pANAP vector
# Description: as §1, §2, §3
# ANAP-incorporated TRPM8 [7] = target: T7, ANAP-incorporated TRPM8 (Mus musculus, UniProt Q8R4D5, L939X)
# T7 construct: expressed in transfected cells; host or cells: HEK293 cells, co-transfected with the pANAP vector
# Description: as §1, §2, §3
# ANAP-incorporated TRPM8 [8] = target: T8, ANAP-incorporated TRPM8 (Mus musculus, UniProt Q8R4D5, N852X); details: ANAP incorporation site N852
# T8 construct: expressed in transfected cells; host or cells: HEK293 cells, co-transfected with the pANAP vector
# Description: as §1, §2, §3
# ANAP-incorporated TRPM8 [9] = target: T9, ANAP-incorporated TRPM8 (Mus musculus, UniProt Q8R4D5, N947X); details: ANAP incorporation site N947
# T9 construct: expressed in transfected cells; host or cells: HEK293 cells, co-transfected with the pANAP vector
# Description: as §1, §2, §3
# ANAP-incorporated TRPM8 [10] = target: T10, ANAP-incorporated TRPM8 (Mus musculus, UniProt Q8R4D5, Q1003X); details: ANAP incorporation site Q1003; average shift, menthol activated vs resting state
# T10 construct: expressed in transfected cells; host or cells: HEK293 cells, co-transfected with the pANAP vector
# Description: as §1, §2, §3
# ANAP-incorporated TRPM8 [11] = target: T11, ANAP-incorporated TRPM8 (Mus musculus, UniProt Q8R4D5, S819X); details: ANAP incorporation site S819; average shift, menthol activated vs resting state
# T11 construct: expressed in transfected cells; host or cells: HEK293 cells, co-transfected with the pANAP vector
# Description: as §1, §2, §3
# ANAP-incorporated TRPM8 [12] = target: T12, ANAP-incorporated TRPM8 (Mus musculus, UniProt Q8R4D5, S921X); details: ANAP incorporation site S921
# T12 construct: expressed in transfected cells; host or cells: HEK293 cells, co-transfected with the pANAP vector
# Description: as §1, §2, §3
# ANAP-incorporated TRPM8 [13] = target: T13, ANAP-incorporated TRPM8 (Mus musculus, UniProt Q8R4D5, W954X); details: ANAP incorporation site W954, menthol activated vs resting state
# T13 construct: expressed in transfected cells; host or cells: HEK293 cells, co-transfected with the pANAP vector
# Description: as §1, §2, §3
# ANAP-incorporated TRPM8 [14] = target: T14, ANAP-incorporated TRPM8 (Mus musculus, UniProt Q8R4D5, Y787X); details: ANAP incorporation site Y787, menthol activated vs resting state
# T14 construct: expressed in transfected cells; host or cells: HEK293 cells, co-transfected with the pANAP vector
# Description: as §1, §2, §3
# ANAP-incorporated TRPM8 [15] = target: T15, ANAP-incorporated TRPM8 (Mus musculus, UniProt Q8R4D5, Y808X); details: ANAP incorporation site Y808; average shift, menthol activated vs resting state
# T15 construct: expressed in transfected cells; host or cells: HEK293 cells, co-transfected with the pANAP vector
# Description: as §1, §2, §3
# [16] = average shift, menthol activated vs resting state
# [17] = menthol activated vs resting state, single measurement
smiles,measurement,setting,value
"CC(C)[C@@H]1CC[C@@H](C)C[C@H]1O [menthol, (−)-menthol]","Shifts in ANAP emission, Ave",ANAP-incorporated TRPM8 [1]; ANAP at A875,6.61
same,shift of ANAP emission peak,"ANAP-incorporated TRPM8 [1]; ANAP at A875 site, redshifted, menthol-induced (0.5 mM), n = 5",6.6 ± 0.4 nm
same,Shifts_ave,"ANAP-incorporated TRPM8 [1]; ANAP incorporation site A875, average shift, menthol activated vs resting state",6.61 nm
same,Shifts in emission,"ANAP-incorporated TRPM8 [1]; ANAP incorporation site A875, menthol activated vs resting state, single measurement",6.25 nm and 6.04 nm and 7.45 nm and 7.64 nm and 5.66 nm
same,Emission Peak at menthol activated state,"ANAP-incorporated TRPM8 [1]; ANAP incorporation site A875, single measurement",495.85 nm and 493.43 nm and 494.62 nm and 492.72 nm and 492.66 nm
same,"Shifts in ANAP emission, Ave",ANAP-incorporated TRPM8 [2]; ANAP at D920,3.47
same,Shifts_ave,"ANAP-incorporated TRPM8 [2]; ANAP incorporation site D920, average shift, menthol activated vs resting state",3.47 nm
same,Emission Peak at menthol activated state,"ANAP-incorporated TRPM8 [2]; ANAP incorporation site D920, single measurement",488.12 nm and 482.56 nm
same,Shifts_ave,ANAP-incorporated TRPM8 [3]; [16],-0.0133 nm
same,Emission Peak at menthol activated state,ANAP-incorporated TRPM8 [3]; single measurement,482.52 nm and 471.8 nm and 476.65 nm and 473.2 nm and 484.21 nm and 484.16 nm
same,Shifts_ave,ANAP-incorporated TRPM8 [4]; [16],-1.40 nm
same,Emission Peak at menthol activated state,ANAP-incorporated TRPM8 [4]; single measurement,476.81 nm and 476.91 nm and 474.92 nm and 474.75 nm and 473.64 nm
same,Shifts_ave,ANAP-incorporated TRPM8 [5]; [16],0.53 nm
same,Emission Peak at menthol activated state,ANAP-incorporated TRPM8 [5]; single measurement,477.57 nm and 487.64 nm and 475.42 nm and 485.75 nm and 480.39 nm
same,Shifts_ave,ANAP-incorporated TRPM8 [6]; [16],1.37 nm
same,Shifts in emission,ANAP-incorporated TRPM8 [6]; [17],1.34 nm and 1.42 nm and 1.82 nm and 1.04 nm and 1.21 nm
same,Emission Peak at menthol activated state,ANAP-incorporated TRPM8 [6]; single measurement,481.75 nm and 488.11 nm and 492.24 nm and 485.58 nm and 489.77 nm
same,"Shifts in ANAP emission, Ave",ANAP-incorporated TRPM8 [7]; ANAP at L939,2.11
same,Shifts_ave,"ANAP-incorporated TRPM8 [7]; ANAP incorporation site L939, average shift, menthol activated vs resting state",2.11 nm
same,Shifts in emission,"ANAP-incorporated TRPM8 [7]; ANAP incorporation site L939, menthol activated vs resting state, single measurement",2.38 nm and 1.56 nm and 2.39 nm
same,Emission Peak at menthol activated state,"ANAP-incorporated TRPM8 [7]; ANAP incorporation site L939, single measurement",484.67 nm and 488.02 nm and 485.09 nm
same,Shifts_ave,ANAP-incorporated TRPM8 [8]; [16],1.13 nm
same,Shifts in emission,ANAP-incorporated TRPM8 [8]; [17],1.32 nm and 1.2 nm and 0.75 nm and 1.07 nm
same,Emission Peak at menthol activated state,ANAP-incorporated TRPM8 [8]; single measurement,487.02 nm and 492.63 nm and 483.01 nm and 479.1 nm and 483.68 nm
same,Shifts_ave,ANAP-incorporated TRPM8 [9]; [16],0.33 nm
same,Emission Peak at menthol activated state,ANAP-incorporated TRPM8 [9]; single measurement,485.99 nm and 482.4 nm and 486.05 nm and 485.2 nm and 481.1 nm
same,Shifts_ave,ANAP-incorporated TRPM8 [10],1.02 nm
same,Shifts_ave,ANAP-incorporated TRPM8 [11],0.65 nm
same,Shifts_ave,ANAP-incorporated TRPM8 [12]; [16],1.07 nm
same,Shifts in emission,ANAP-incorporated TRPM8 [12]; [17],1.34 nm and 1.13 nm and 1.09 nm and 0.99 nm and 0.8 nm
same,Emission Peak at menthol activated state,ANAP-incorporated TRPM8 [12]; single measurement,493.48 nm and 489.7 nm and 490.23 nm and 494.29 nm and 493.18 nm
same,Shifts_ave,ANAP-incorporated TRPM8 [13]; average shift,1.45 nm
same,Shifts in emission,ANAP-incorporated TRPM8 [13]; single measurement,1.59 nm and 1.14 nm and 1.76 nm and 1.68 nm and 1.08 nm
same,Shifts_ave,ANAP-incorporated TRPM8 [14]; average shift,1.928 nm
same,Shifts in emission,ANAP-incorporated TRPM8 [14]; single measurement,1.56 nm and 1.57 nm and 2.4 nm and 1.35 nm and 2.69 nm and 2 nm
same,Shifts_ave,ANAP-incorporated TRPM8 [15],1.79 nm
